Patent US5610195A, “Ornithine decarboxylase inhibiting branched aminooxy amino alkane derivatives” (Ciba-Geigy Corporation, priority 1993, dated 1997)
Where a name gives a salt, the structure may show the parent alone. Read-outs that look alike come from different tables or passages of the source.

Columns and labels:
[1] = system: diamine oxidase (DAO); settings: known compound, state of the art; cited from earlier work
[2] = system: ODC; settings: known compound, state of the art; cited from earlier work
[3] = molecular target: T1, DAO from pig kidney (Sus scrofa, UniProt Q9TRC7); assay: selectivity: inhibition of diamine oxidase (14C-putrescine assay) relative to ODC; assay type: biochemical; settings: ODC from rat liver
T1 construct: DAO from pig kidney; purchased Sigma Chemie, Deisenhofen, Germany; host or cells: pig kidney
T1 sequence (Q9TRC7 25-755): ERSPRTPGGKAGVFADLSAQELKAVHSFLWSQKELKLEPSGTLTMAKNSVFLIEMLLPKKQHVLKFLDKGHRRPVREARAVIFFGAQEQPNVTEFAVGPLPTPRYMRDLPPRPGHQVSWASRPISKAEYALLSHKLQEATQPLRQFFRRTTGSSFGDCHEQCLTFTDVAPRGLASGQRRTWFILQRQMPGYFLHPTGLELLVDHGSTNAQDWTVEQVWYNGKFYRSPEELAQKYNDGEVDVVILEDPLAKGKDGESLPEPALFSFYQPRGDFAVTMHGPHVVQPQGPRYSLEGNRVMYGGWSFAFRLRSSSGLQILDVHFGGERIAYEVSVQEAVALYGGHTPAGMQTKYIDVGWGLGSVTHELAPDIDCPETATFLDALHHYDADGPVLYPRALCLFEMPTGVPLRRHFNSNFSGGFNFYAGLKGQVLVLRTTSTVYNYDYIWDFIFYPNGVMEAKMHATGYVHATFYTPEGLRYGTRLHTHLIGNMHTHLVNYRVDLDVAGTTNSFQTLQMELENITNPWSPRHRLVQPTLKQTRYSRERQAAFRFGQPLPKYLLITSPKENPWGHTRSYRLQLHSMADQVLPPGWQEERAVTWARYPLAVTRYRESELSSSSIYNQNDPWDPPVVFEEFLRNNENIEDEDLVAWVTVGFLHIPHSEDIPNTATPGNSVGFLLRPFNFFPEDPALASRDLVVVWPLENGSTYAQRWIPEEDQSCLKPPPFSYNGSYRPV
Description: Briefly, the batch contains (expressed as the final concentrations) 0.1M potassium phosphate buffer pH 7.4; 10 mM mercaptoethanol, 0.40 mM putrescine, including 40 nCi [1,4-^14 C]putrescine (Amersham, 110 Ci/mole) and variable amounts of enzyme protein (DAO) and inhibitor. For standard experiments, the batches are incubated for 30 minutes at 37° C. and then transferred to an ice-bath. The reaction is stopped by addition of 0.5 ml of ice-cold 1M Na2 CO3 solution which contains 1 mM aminoguanidine. After addition of 4 ml of toluene with 5 g/l of PPO (2,5-diphenyloxazole), the test tube is continuously inverted around the transverse axis at room temperature for 10 minutes, for mixing, and is then centrifuged at 1800×g in a centrifugal rotor at 4° C. for 5 minutes and finally frozen in ethanol/dry ice. […] After a total of 3 extractions, the combined toluene extracts (which contain the radiolabelled 1-pyrroline to the extent that it has been liberated from putrescine by the action of the DAO) are measured in a liquid scintillation counter (Rack Beta 1215, LKB-Wallac). For calculation of the radioactivity employed, an aliquot of the aqueous phase after 3 extractions is transferred to Whatman GF/C filter (glass fibre filter, Whatman, USA), dried in vacuo and, after addition of 5 ml of toluene/PPO, is counted. […]

[4] = cited: Eloranta et al., Life Chemistry Reports 9, 163-169 (1991); cited from earlier work
[5] = molecular target: T2, ODC from the rat liver (Rattus norvegicus, UniProt P09057); assay: inhibition of ornithine decarboxylase (Seely and Pegg method, ODC from rat liver); assay type: biochemical
T2 sequence (P09057 1-461): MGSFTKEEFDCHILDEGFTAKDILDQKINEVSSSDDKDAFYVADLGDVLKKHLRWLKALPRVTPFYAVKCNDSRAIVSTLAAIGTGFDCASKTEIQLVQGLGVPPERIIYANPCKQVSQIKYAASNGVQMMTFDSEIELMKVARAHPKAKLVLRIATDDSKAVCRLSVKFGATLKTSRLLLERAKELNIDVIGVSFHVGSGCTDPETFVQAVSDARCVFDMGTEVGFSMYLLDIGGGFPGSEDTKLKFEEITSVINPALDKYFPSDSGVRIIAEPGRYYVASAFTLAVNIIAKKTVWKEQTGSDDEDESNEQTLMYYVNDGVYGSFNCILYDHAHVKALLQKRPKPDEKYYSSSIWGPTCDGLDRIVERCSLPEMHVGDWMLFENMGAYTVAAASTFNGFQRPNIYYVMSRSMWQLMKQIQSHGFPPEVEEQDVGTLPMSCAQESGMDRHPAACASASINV
Description: White-Tabor (editors): Methods in Enzymology, Volume 94: Polyamines, Academic Press, New York 1983. If ODC from the rat liver is used in this test (isolation: Hayashi, S. I. and Kameji, T., same volume, pages 154-158), IC50 values in the micromolar range down to about 0.01 μM, preferably between about 0.01 and 1 μM, for example between 0.014 and 0.7 μM, are obtained for compounds of the formula I. IC50 is the concentration of the inhibitor at which the ODC activity is 50% of a control without inhibitor.
The following results were obtained for inhibition of ODC from the rat liver (see above, Seely and Pegg and Hayashi and Kameji) with determination of the IC50 and for inhibition of the tumour growth of T24 bladder carcinoma cells (described above) with determination of the IC50 : […]

[6] = system: human T24 bladder carcinoma cells; assay: inhibition of growth of human T24 bladder carcinoma cells (methylene blue staining); assay type: cell-based; settings: 120 h, read-out: T24 inhibition IC50
Description: The carcinoma cells (1000-1500) are transinoculated into 96-well microtitre plates and incubated overnight under the conditions mentioned. The test substance is added in serial dilutions on day 1. The plates are incubated under the conditions mentioned for 5 days. […] After the incubation, the cells are fixed with 3.3% (weight/volume=w/v) aqueous glutaraldehyde solution, washed with water and stained with 0.05% (w/v) aqueous methylene blue solution. After washing, the dye is eluted with 3% (w/v) aqueous hydrochloric acid. Thereafter, the optical density (OD) per depression, which is directly proportional to the number of cells, is measured with a photometer (Titertek multiskan) at 665 nm. The IC50 values are calculated with a computer system using the formula [formula]

[7] = human T24 bladder carcinoma cells, 5 days

| SMILES | IC50 [5] [µM] | IC50 [6, 7] [µM] | other results |
| --- | --- | --- | --- |
| NCCCON [APA, 1-aminooxy-3-aminopropane] |  |  | selectivity with respect to diamine oxidase (in words) [1]: not selective with respect to diamine oxidase; inhibition of ODC (in words) [2]: potent inhibitor of ODC; quotient of IC50 (DAO)/IC50 (ODC) [3]: about 1.2; activity in whole animals [4]: practically no action in whole animal tests |
| C[C@H](N)CCON [Example 1, (2S)-4-Aminooxy-2-butylamine dihydrochloride] | 0.088 | 8.1 |  |
| C[C@@H](N)CCON [Example 2, (2R)-4-Aminooxy-2-butylamine dihydrochloride] | 0.027 | 5.49 |  |
| CC(N)CCON (centres unmarked) [Example 3, 4-Aminooxy-2-butylamine dihydrochloride] | 0.019 | 3.76 |  |
| CCC(N)CCON (centres unmarked) [Example 4, 1-aminooxy-3-pentylamine dihydrochloride] | 0.36 |  |  |
| CC(CN)CON (centres unmarked) [Example 7, 3-Aminooxy-2-methyl-1-propylamine sulfate] | 0.027 |  | IC50 ([6]; Homo sapiens): 2.74 µM |

Continued, in another order:

| IC50 [5] [µM] | IC50 [6, 7] [µM] | SMILES | other results |
| --- | --- | --- | --- |
| 0.3 |  | CC(C)(N)CCON [Example 5, 4-Aminooxy-2-methyl-2-butylamine dihydrochloride] |  |
| 0.44 |  | NOCC[C@H](N)CO [Example 6, (2S)-4-Aminooxy-1-hydroxy-2-butylamine sulfate] |  |
| 0.41 |  | CC(CCN)ON (centres unmarked) [Example 9, 3-Aminooxy-1-butylamine dihydrochloride] |  |
| 0.32 |  | CC(N)C(C)CON (centres unmarked) [Example 10, 4-Aminooxy-3-methyl-2-butylamine sulfate] |  |
